Results on 1 compound are retold here after US20240342138A1, “MICROTUBULE TARGETING AGENTS” (BPGbio, Inc., priority 2023, published 2024).

The subject of one series is C6 rat glioma cells. The experiment in a line: Orthotopic syngeneic C6 glioma model. It counts as in vivo, Sprague Dawley rats. The source says:
(§1) FIG. 14A-14E show the efficacy of Compound 1 in glioblastoma cell lines in vitro and in a glioblastoma rat model (C6). A) In vitro potency of Compound 1 in four different glioblastoma cell lines as evaluated by Realtime-Glo™ assay (C6, and U87 cells) or ATPlite 1Step™ Perkin Elmer (performed by NTRC Oncolines; T98G and A-172 cells). B) Study design overview: C6 rat glioma cells (3×10^5) were implanted into the right entorhinal cortex/subiculum region of male Sprague Dawley rats and tumor burden was assessed 14 days post inoculation using MRI and animals randomized into […] (4) groups (vehicle control, 5 mg/kg, 10 mg/kg, and 20 mg/kg Compound 1) with 4 animals per group. […] C) Body weights were measured every two days. […]
(§2) Glioblastoma (GBM) is the most common and highly malignant form of primary brain tumor with a poor prognosis despite advances in treatments. […] Accordingly, the in vitro potency of Compound 1 was examined in four different glioblastoma cell lines as evaluated by Realtime-Glo™ assay (C6, and U87 cells) or ATPlite 1Step™ Perkin Elmer (performed by NTRC Oncolines; T98G and A-172 cells). […] Therefore, the in vivo tumor activity of Compound 1 was next assessed in Sprague Dawley rats implanted with C6 rat glioma cells into the right entorhinal cortex/subiculum region (AP: −7 mm; ML: 4.5 mm, DV: 5 mm). […]

The test system of the next series is COLO205 cells. Put plainly: In vitro potency, ATPlite 1Step (NTRC Oncolines). Type of series: cell-based. The conditions noted are these: Homo sapiens, COLO 205. As for the experimental part: FIG. 11A-11E show the efficacy of Compound 1 in a colorectal cancer xenograft model (COLO205). A) In vitro potency of Compound 1 in COLO205 cells as evaluated by ATPlite 1Step™ Perkin Elmer (performed by NTRC Oncolines). B) COLO205 cells were implanted subcutaneously in nude mice and tumors were allowed to grow to a volume of 210 mm3 followed by randomization of animals into three (3) groups (vehicle control, 75 mg/kg, 150 mg/kg Compound 1) with 12 animals per group. A Compound 1 solid dispersion was prepared prior to each dosing and administered by oral gavage two times a day (BID). Mean tumor volume of each group over time and the growth of tumor in each individual animal was graphed. For each individual animal of […] group TGI (%) was calculated based on the tumor growth inhibition of individual tumor at each given day of the study compared to the average of the group for that given day of the study. P-values were calculated using two-tailed distribution and two-sample equal variance (homoscedastic) for each group treated with Compound 1 for each given day of the study in reference to vehicle control. […] The level of two biomarkers, pHH3 and CCNB1 in each tissue was measured and graphed as the Min-to-Max plot and scatter plot of the level of each biomarker. […] E) Body weight of each individual animal was measured on each day of the study and graphed using Graphpad Prism. […]
(In general: ATP-based viability assays read luminescence as a measure of living cells.)

Another series deals with A-172 cells. The experiment in a line: In vitro potency in glioblastoma cells, ATPlite 1Step (NTRC Oncolines). The conditions noted are these: Homo sapiens, FIG. 14A, read-out: In vitro potency (anti-cancer activity). Type of series: cell-based.
Excerpt: as §1, §2

The test system of the next series is T98G cells. Described as above. The conditions noted are these: Homo sapiens, FIG. 14A, read-out: In vitro potency (anti-cancer activity). Type of series: cell-based.
Excerpt: as §1, §2

In the next series the target is P-gp (Homo sapiens, UniProt P08183). The experiment in a line: P-gp substrate status. Type of series: in vitro ADME.
Sequence of P-gp (P08183 whole entry): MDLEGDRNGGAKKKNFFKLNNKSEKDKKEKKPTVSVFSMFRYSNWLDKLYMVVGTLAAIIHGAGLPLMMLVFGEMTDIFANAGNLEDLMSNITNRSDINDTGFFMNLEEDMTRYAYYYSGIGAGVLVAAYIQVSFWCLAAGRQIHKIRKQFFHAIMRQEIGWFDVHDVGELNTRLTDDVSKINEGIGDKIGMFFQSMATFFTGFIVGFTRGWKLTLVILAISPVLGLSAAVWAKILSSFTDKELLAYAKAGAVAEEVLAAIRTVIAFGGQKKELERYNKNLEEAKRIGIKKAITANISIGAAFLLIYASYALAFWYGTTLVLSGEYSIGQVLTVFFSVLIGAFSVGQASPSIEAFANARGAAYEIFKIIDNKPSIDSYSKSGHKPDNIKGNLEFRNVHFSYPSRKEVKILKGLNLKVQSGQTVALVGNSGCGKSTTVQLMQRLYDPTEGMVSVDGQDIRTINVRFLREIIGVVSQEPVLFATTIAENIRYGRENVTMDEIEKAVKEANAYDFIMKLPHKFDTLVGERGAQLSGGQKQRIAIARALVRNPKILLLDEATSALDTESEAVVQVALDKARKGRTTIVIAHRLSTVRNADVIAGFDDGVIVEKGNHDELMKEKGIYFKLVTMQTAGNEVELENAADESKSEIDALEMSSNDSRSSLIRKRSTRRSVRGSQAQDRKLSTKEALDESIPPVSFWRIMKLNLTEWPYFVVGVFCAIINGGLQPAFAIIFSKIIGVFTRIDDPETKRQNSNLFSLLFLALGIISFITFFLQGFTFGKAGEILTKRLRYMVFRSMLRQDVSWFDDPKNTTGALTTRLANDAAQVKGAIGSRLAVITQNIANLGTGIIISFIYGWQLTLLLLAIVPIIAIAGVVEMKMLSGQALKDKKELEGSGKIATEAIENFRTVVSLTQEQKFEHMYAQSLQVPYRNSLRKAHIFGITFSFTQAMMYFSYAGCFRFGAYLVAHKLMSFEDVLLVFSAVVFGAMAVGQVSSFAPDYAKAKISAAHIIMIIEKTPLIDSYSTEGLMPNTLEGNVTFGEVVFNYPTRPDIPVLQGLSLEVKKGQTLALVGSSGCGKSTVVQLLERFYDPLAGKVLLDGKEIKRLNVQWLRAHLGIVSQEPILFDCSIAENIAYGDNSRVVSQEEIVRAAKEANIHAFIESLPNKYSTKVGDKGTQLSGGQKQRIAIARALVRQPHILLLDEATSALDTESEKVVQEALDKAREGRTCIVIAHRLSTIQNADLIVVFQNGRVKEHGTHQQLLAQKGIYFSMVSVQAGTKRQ

For `COc1ccccc1-c1nc(CNC(=O)c2ccccc2OC(F)F)n[nH]1` [Compound 1, 2-(difluoromethoxy)-N-[[5-(2-methoxyphenyl)-1H-1,2,4-triazol-3-yl]methyl]benzamide], the “Animals still alive at day 60 post-treatment initiation” value with C6 rat glioma cells (2 in each treatment group (5, 10, 20 mg/kg)) is reported as “six”. Also, the “MRI imaging of surviving animals” value in the series with C6 rat glioma cells (FIG. 14E) is “reduction in tumor size and tumor fragmentation”. Also, the results for the IC50 in the series with COLO205 cells (COLO205), with A-172 cells and in the series on T98G cells were 67 nM, 48 nM and 39 nM, respectively. In addition, the Emax in the series on COLO205 cells (COLO205, in vitro, read-out: Maximum effect (%)) came out at 95%. The P-gp substrate entry on P-gp is reported as “not a substrate for P-gp”.
